Data on 17 compounds can be found in patent US20230271964A1, “5-AMINO-8-(4-PYRIDYL)-[1,2,4]TRIAZOLO[4,3-C]PYRIMIDIN-3-ONE COMPOUNDS FOR USE AGAINST CANCER” (ASTRAZENECA AB, priority 2020, published 2023).

The target in experiment [1] is human CB1 receptor (Homo sapiens (Human), UniProt P21554). Nature of the experiment: CB1 receptor antagonism, agonist-induced cAMP modulation (HTRF) in transfected CHO cells. The note with it: read-out: Antag IC50. Type of experiment: cell-based. Here is the method: Receptor antagonism: Evaluation of the antagonist activity of compounds at the human CB1 receptor expressed in transfected CHO cells, determined by measuring their effects on agonist-induced cAMP modulation using the HTRF detection method.
human CB1 receptor, sequence (P21554 whole entry): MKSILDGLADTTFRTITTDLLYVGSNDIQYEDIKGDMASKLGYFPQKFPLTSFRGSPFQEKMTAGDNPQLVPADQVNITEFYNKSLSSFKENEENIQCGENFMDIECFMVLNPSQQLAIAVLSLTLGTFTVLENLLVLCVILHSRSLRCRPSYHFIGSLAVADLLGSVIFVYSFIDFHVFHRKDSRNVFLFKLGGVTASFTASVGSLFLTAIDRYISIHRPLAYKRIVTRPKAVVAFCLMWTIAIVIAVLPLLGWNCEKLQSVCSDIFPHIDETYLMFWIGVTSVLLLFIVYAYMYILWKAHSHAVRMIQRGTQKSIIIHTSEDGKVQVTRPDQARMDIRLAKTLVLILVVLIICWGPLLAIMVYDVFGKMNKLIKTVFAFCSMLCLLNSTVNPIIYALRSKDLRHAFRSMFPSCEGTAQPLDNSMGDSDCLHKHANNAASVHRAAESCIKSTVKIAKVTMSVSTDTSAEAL
Thereafter, the reference agonist CP 55940 and the adenylyl cyclase activator NKH 477 are added at respective final concentrations of 3 nM and 3 µM.
For basal control measurements, CP 55940 is omitted from the wells containing 3 µM AM 281.
Following 20 min incubation at 37° C., the cells are lysed and the fluorescence acceptor (D2-labeled cAMP) and fluorescence donor (anti-cAMP antibody labeled with europium cryptate) are added.
After 60 min at room temperature, the fluorescence transfer is measured at λex=337 nm and λem=620 and 665 nm using a microplate reader (Rubystar, BMG). The cAMP concentration is determined by dividing the signal measured at 665 nm by that measured at 620 nm (ratio).
The standard reference antagonist is AM 281, which is tested in each experiment at several concentrations to generate a concentration-response curve from which its IC50 value is calculated.

The target of experiment [2] is human adenosine A2A receptor (Homo sapiens (Human), UniProt P29274). Kind of experiment: Adenosine receptor inhibition binding assay, [3H]ZM241385, HEK293 A2A receptor membranes. The note with it: 1 nM [3H]ZM241385, HEK293-hA2A membranes, 25° C., 1 h; Ki from IC50 by Cheng-Prusoff. In a few lines: (§1)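 Membranes from BacMam-transduced HEK293 cells (0.2 µg A2A; 1.4 µg A1) incubated 1 h at 25 °C with 1 nM radioligand; A2A in 50 mM Tris-HCl pH 7.4, A1 buffer adds 100 mM NaCl, 10 mM MgCl2. Nonspecific binding: 1 µM CGS 15943 (A2A) or 1 µM DPCPX (A1). Filtration, scintillation counting; IC50 converted to Ki via Cheng-Prusoff.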
human adenosine A2A receptor, sequence (P29274 whole entry): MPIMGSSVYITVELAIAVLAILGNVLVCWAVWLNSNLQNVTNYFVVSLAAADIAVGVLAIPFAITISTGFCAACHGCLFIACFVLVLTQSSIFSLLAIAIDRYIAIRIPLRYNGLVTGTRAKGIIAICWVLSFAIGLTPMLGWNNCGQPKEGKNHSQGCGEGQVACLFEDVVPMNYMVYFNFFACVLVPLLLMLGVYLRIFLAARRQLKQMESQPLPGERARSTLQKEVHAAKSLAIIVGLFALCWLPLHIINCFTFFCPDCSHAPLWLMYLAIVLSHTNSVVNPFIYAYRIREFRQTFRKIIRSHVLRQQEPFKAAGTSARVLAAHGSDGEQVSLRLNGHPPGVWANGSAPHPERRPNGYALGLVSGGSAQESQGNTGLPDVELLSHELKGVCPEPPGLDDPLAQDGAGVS

Experiment [3] concerns the target human CB-1 cannabinoid receptor (Homo sapiens (Human), UniProt P21554). Nature of the experiment: CB-1 receptor radioligand binding assay, [3H]CP 55940, transfected CHO cell membranes. The note with it: 0.5 nM [3H]CP 55940, CHO cell membranes, 120 min at 37° C. The method, then:
Nonspecific binding is determined in the presence of 10 µM WIN 55212-2.
Following incubation, the samples are filtered rapidly under vacuum through glass fiber filters (GF/B, Packard) presoaked with 0.3% PEI and rinsed several times with an ice-cold buffer containing 50 mM Tris-HCl (pH 7.4) and 0.5% BSA using a 96-sample cell harvester (Unifilter, Packard). The filters are dried then counted for radioactivity in a scintillation counter (Topcount, Packard) using a scintillation cocktail (Microscint 0, Packard).
The standard reference compound is CP 55940 which is tested in each experiment at several concentrations to obtain a competition curve from which its IC50 is calculated.

The target of experiment [4] is human adenosine A1 receptor (Homo sapiens (Human), UniProt P30542). Kind of experiment: Adenosine receptor inhibition binding assay, [3H]DPCPX, A1 receptor membranes. The note with it: 1 nM [3H]DPCPX, 25° C., 1 h; Ki from IC50 by Cheng-Prusoff. A digest of the protocol:
as §1

SMILES strings stand for the structures.

human adenosine A1 receptor, sequence (P30542 whole entry): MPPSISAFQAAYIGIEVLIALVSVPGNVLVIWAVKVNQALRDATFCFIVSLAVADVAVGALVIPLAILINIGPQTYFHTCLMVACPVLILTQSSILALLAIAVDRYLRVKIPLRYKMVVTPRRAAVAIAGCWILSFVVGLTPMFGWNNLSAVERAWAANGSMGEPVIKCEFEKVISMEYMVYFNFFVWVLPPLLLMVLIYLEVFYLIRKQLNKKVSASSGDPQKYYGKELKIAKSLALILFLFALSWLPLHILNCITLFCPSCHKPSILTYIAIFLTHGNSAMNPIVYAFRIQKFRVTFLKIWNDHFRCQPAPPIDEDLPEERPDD
human CB-1 cannabinoid receptor, sequence (P21554 whole entry): as the sequence (P21554 whole entry) above

Take `Cc1cc(-c2c(-c3ccc(F)cc3)nc(N)n3c(=O)n(Cc4ncoc4C)nc23)cc(C)n1` [Example 1-31, 5-amino-8-(2,6-dimethyl-4-pyridyl)-7-(4-fluorophenyl)-2-[(5-methyloxazol-4-yl)methyl]-[1,2,4]triazolo[4,3-c]pyrimidin-3-one]: the concentration for half-maximal inhibition (IC50) in experiment [1] came to 12.1 µM. In addition, the “A2A pKi” value in experiment [2] stood at 9.6. In experiment [3], this compound registered a Ki of 26.1 µM. For the same compound, in experiment [4], the “A1 pKi” value is 7.0.

As for `Cc1cc(-c2c(-c3ccccc3)nc(N)n3c(=O)n(CC4CCCN4Cc4ccccc4CN)nc23)cc(C)n1` (centres unmarked) [Example 3-4, 5-amino-2-[[1-[[2-(aminomethyl)phenyl]methyl]pyrrolidin-2-yl]methyl]-8-(2,6-dimethyl-4-pyridyl)-7-phenyl-[1,2,4]triazolo[4,3-c]pyrimidin-3-one], in experiment [1], the IC50 is greater than 100 µM. For the same compound, the “A2A pKi” value in experiment [2] amounted to 8.4. Also, the Ki in experiment [3] came out at 76.4 µM. Besides, in experiment [4], the “A1 pKi” value worked out at 6.3.

As to `Cc1cc(-c2c(-c3ccccc3)nc(N)n3c(=O)n(Cc4ncoc4C)nc23)cc(C)n1` [Example 1-22, 5-amino-8-(2,6-dimethyl-4-pyridyl)-2-[(5-methyloxazol-4-yl)methyl]-7-phenyl-[1,2,4]triazolo[4,3-c]pyrimidin-3-one], the IC50 in experiment [1] was greater than 100 µM. Besides, the “A2A pKi” value in experiment [2] was 10.1. The affinity in experiment [3], expressed as Ki, was 29.6 µM. In addition, the “A1 pKi” value in experiment [4] came to 7.4.

Turning to `COc1cc(-c2c(-c3ccccc3)nc(N)n3c(=O)n(Cc4ncoc4C)nc23)cc(CO)n1` [Example 1-60, 5-amino-8-[2-(hydroxymethyl)-6-methoxy-4-pyridyl]-2-[(5-methyloxazol-4-yl)methyl]-7-phenyl-[1,2,4]triazolo[4,3-c]pyrimidin-3-one], the 50% inhibitory concentration (IC50) in experiment [1] was greater than 100 µM. In addition, the “A2A pKi” value in experiment [2] is 9.9. The inhibition constant (Ki) in experiment [3] is 66.7 µM. Further, in experiment [4], the “A1 pKi” value was determined as 6.8.

As to `Cn1ccnc1Cn1nc2c(-c3cc(CO)nc(C(F)(F)F)c3)c(-c3ccccc3)nc(N)n2c1=O` [Example 1-67, 5-amino-8-[2-(hydroxymethyl)-6-(trifluoromethyl)-4-pyridyl]-2-[(1-methylimidazol-2-yl)methyl]-7-phenyl-[1,2,4]triazolo[4,3-c]pyrimidin-3-one], the IC50 in experiment [1] was greater than 100 µM. In addition, in experiment [2], the “A2A pKi” value was determined as 10.0. The “A1 pKi” value in experiment [4] was found to be 8.0.

With `Nc1nc(-c2ccccc2)c(-c2cc(Cl)nc(CO)c2)c2nn(C[C@H]3CCCO3)c(=O)n12` [Example 2-32, 5-amino-8-[2-chloro-6-(hydroxymethyl)-4-pyridyl]-7-phenyl-2-[[(2R)-tetrahydrofuran-2-yl]methyl]-[1,2,4]triazolo[4,3-c]pyrimidin-3-one], in experiment [1], the concentration for half-maximal inhibition (IC50) is greater than 100 µM. The “A2A pKi” value in experiment [2] came to 9.6. The “A1 pKi” value in experiment [4] is on record as 6.6.

With `Cc1ocnc1Cn1nc2c(-c3cc(CO)nc(C(F)(F)F)c3)c(-c3ccccc3)nc(N)n2c1=O` [Example 1-66, 5-amino-8-[2-(hydroxymethyl)-6-(trifluoromethyl)-4-pyridyl]-2-[(5-methyloxazol-4-yl)methyl]-7-phenyl-[1,2,4]triazolo[4,3-c]pyrimidin-3-one], the IC50 in experiment [1] is greater than 100 µM. The “A2A pKi” value in experiment [2] is listed as 9.7. Moreover, the “A1 pKi” value in experiment [4] is 7.5.

Consider `Cc1cc(-c2c(-c3ccccc3)nc(N)n3c(=O)n(C(CN)C4CCOC4)nc23)cc(C)n1` (centres unmarked) [Example 2-15, 5-amino-2-(2-amino-1-tetrahydrofuran-3-yl-ethyl)-8-(2,6-dimethyl-4-pyridyl)-7-phenyl-[1,2,4]triazolo[4,3-c]pyrimidin-3-one], for which the half-inhibitory concentration (IC50) in experiment [1] was greater than 100 µM. For the same compound, in experiment [2], the “A2A pKi” value was determined as 7.5. In experiment [4], the “A1 pKi” value was found to be 5.7.

On to `Cc1cc(-c2c(-c3ccccc3)nc(N)n3c(=O)n(Cc4cc(C)on4)nc23)cc(CO)n1` [Example 1-43, 5-amino-8-[2-(hydroxymethyl)-6-methyl-4-pyridyl]-2-[(5-methylisoxazol-3-yl)methyl]-7-phenyl-[1,2,4]triazolo[4,3-c]pyrimidin-3-one], for which the IC50 in experiment [1] is greater than 100 µM. Besides, the “A2A pKi” value in experiment [2] worked out at 9.1. For the same compound, the affinity in experiment [3] corresponds to a Ki of 86.9 µM. For the same compound, the “A1 pKi” value in experiment [4] came out at 6.7.

For the compound `Cc1cc(-c2c(-c3ccccc3)nc(N)n3c(=O)n(C[C@@H]4CCCO4)nc23)cc(CO)n1` [Example 2-28, 5-amino-8-[2-(hydroxymethyl)-6-methyl-4-pyridyl]-7-phenyl-2-[[(2S)-tetrahydrofuran-2-yl]methyl]-[1,2,4]triazolo[4,3-c]pyrimidin-3-one], the half-inhibitory concentration (IC50) in experiment [1] is greater than 100 µM. Also, in experiment [2], the “A2A pKi” value is on record as 9.1. In experiment [4], the “A1 pKi” value was 6.5.

In the case of `Cn1ccnc1Cn1nc2c(-c3cc(Cl)nc(CO)c3)c(-c3ccc(F)cc3)nc(N)n2c1=O` [Example 1-58, 5-amino-8-[2-chloro-6-(hydroxymethyl)-4-pyridyl]-7-(4-fluorophenyl)-2-[(1-methylimidazol-2-yl)methyl]-[1,2,4]triazolo[4,3-c]pyrimidin-3-one], the concentration for half-maximal inhibition (IC50) in experiment [1] is greater than 100 µM. Further, in experiment [2], the “A2A pKi” value came out at 9.5. Besides, the “A1 pKi” value in experiment [4] worked out at 7.1.

For `Nc1nc(-c2ccccc2)c(-c2cc(CO)nc(C(F)(F)F)c2)c2nn(C[C@H]3CCCO3)c(=O)n12` [Example 2-38, 5-amino-8-[2-(hydroxymethyl)-6-(trifluoromethyl)-4-pyridyl]-7-phenyl-2-[[(2R)-tetrahydrofuran-2-yl]methyl]-[1,2,4]triazolo[4,3-c]pyrimidin-3-one], the IC50 in experiment [1] is greater than 100 µM. The “A2A pKi” value in experiment [2] is 8.9. Also, the “A1 pKi” value in experiment [4] came out at 6.3.

Consider `Cc1cc(-c2c(-c3ccccc3)nc(N)n3c(=O)n(CCc4nnnn4C)nc23)cc(C)n1` [Example 1-5, 5-amino-8-(2,6-dimethyl-4-pyridyl)-2-[2-(1-methyltetrazol-5-yl)ethyl]-7-phenyl-[1,2,4]triazolo[4,3-c]pyrimidin-3-one], for which, in experiment [1], the IC50 was greater than 100 µM. For the same compound, in experiment [2], the “A2A pKi” value was 7.2. For the same compound, in experiment [4], the “A1 pKi” value is less than 5.4.

In the case of `Cc1cc(-c2c(-c3ccccc3)nc(N)n3c(=O)n(Cc4nccn4C)nc23)cc(C)[n+]1[O-]` [Example 1-36, 5-amino-8-(2,6-dimethyl-1-oxido-pyridin-1-ium-4-yl)-2-[(1-methylimidazol-2-yl)methyl]-7-phenyl-[1,2,4]triazolo[4,3-c]pyrimidin-3-one], in experiment [1], the IC50 was greater than 100 µM. For the same compound, the “A2A pKi” value in experiment [2] worked out at 8.0. The “A1 pKi” value in experiment [4] was 7.3.

With `Cn1ccnc1Cn1nc2c(-c3cc(Cl)nc(CO)c3)c(-c3ccccc3)nc(N)n2c1=O` [Example 1-55, 5-amino-8-[2-chloro-6-(hydroxymethyl)-4-pyridyl]-2-[(1-methylimidazol-2-yl)methyl]-7-phenyl-[1,2,4]triazolo[4,3-c]pyrimidin-3-one], in experiment [1], the IC50 was greater than 100 µM. Besides, the “A2A pKi” value in experiment [2] is on record as 9.4. In addition, the “A1 pKi” value in experiment [4] amounted to 7.5.

`Cc1ocnc1Cn1nc2c(-c3cc(C)[n+]([O-])c(C)c3)c(-c3ccc(F)cc3)nc(N)n2c1=O` [Example 1-37, 5-amino-8-(2,6-dimethyl-1-oxido-pyridin-1-ium-4-yl)-7-(4-fluorophenyl)-2-[(5-methyloxazol-4-yl)methyl]-[1,2,4]triazolo[4,3-c]pyrimidin-3-one]: in experiment [1], the concentration for half-maximal inhibition (IC50) is greater than 100 µM. Also, in experiment [2], the “A2A pKi” value stood at 8.8. For the same compound, the “A1 pKi” value in experiment [4] came out at 6.8.

In the case of `Cc1cc(-c2c(-c3ccc(F)cc3)nc(N)n3c(=O)n(Cc4ccn(C)n4)nc23)cc(CO)n1` [Example 1-52, 5-amino-7-(4-fluorophenyl)-8-[2-(hydroxymethyl)-6-methyl-4-pyridyl]-2-[(1-methylpyrazol-3-yl)methyl]-[1,2,4]triazolo[4,3-c]pyrimidin-3-one], the IC50 in experiment [1] was greater than 100 µM. The “A2A pKi” value in experiment [2] is recorded as 8.6. Also, the “A1 pKi” value in experiment [4] was 6.7.

Usually IC50 stands for the concentration at which inhibition is half-maximal. One may read the Ki as the dissociation constant of the complex between target and ligand, obtained from inhibition or displacement. A higher Ki goes with lower affinity.
